Data: PubChem BioAssay AID248 (DTP/NCI, 2004)
Several values for one entry are separate records, joined by “and”; a condition that tells them apart may be missing. Equal entries are not always repeated. Inconclusive results and toxic doses are left out. Cut-off read from the data, not from the text of the source: active = T/C of 150% or more; inactive = T/C below 125%.

Test system: L1210 leukemia ip in BDF1 mice, survival T/C
Assay: NCI In Vivo Anticancer Drug Screen. Data for tumor model L1210 Leukemia (intraperitoneal) in B6D2F1 (BDF1) mice
Details: endpoint: mean survival time, higher = longer survival
Procedure, shortened: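 Transplantable tumor model; survival measured in treated vs vehicle control mice. Value = treated/control.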

[1] = dose: 100.0 mg/kg/injection, schedule: Q01DX009 (ip), vehicle: Klucel (hydroxypropylcellulose) (HPC)
[2] = dose: 100.0 mg/kg/injection, schedule: Q04DX003 (ip), vehicle: Klucel (hydroxypropylcellulose) (HPC)
[3] = dose: 200.0 mg/kg/injection, schedule: Q01DX009 (ip), vehicle: Klucel (hydroxypropylcellulose) (HPC)
[4] = dose: 200.0 mg/kg/injection, schedule: Q04DX003 (ip), vehicle: Klucel (hydroxypropylcellulose) (HPC)
[5] = dose: 400.0 mg/kg/injection, schedule: Q01DX009 (ip), vehicle: Klucel (hydroxypropylcellulose) (HPC)
[6] = dose: 400.0 mg/kg/injection, schedule: Q04DX003 (ip), vehicle: Klucel (hydroxypropylcellulose) (HPC)
[7] = dose: 100.0 mg/kg/injection, schedule: Q01DX001 (ip), vehicle: saline
[8] = dose: 200.0 mg/kg/injection, schedule: Q01DX001 (ip), vehicle: saline
[9] = dose: 100.0 mg/kg/injection, schedule: Q01DX009 (ip), vehicle: saline with Tween-80
[10] = dose: 100.0 mg/kg/injection, schedule: Q04DX003 (ip), vehicle: saline with Tween-80
[11] = dose: 200.0 mg/kg/injection, schedule: Q01DX009 (ip), vehicle: saline with Tween-80
[12] = dose: 200.0 mg/kg/injection, schedule: Q04DX003 (ip), vehicle: saline with Tween-80
[13] = dose: 400.0 mg/kg/injection, schedule: Q01DX009 (ip), vehicle: saline with Tween-80
[14] = dose: 400.0 mg/kg/injection, schedule: Q04DX003 (ip), vehicle: saline with Tween-80
[15] = dose: 50.0 mg/kg/injection, schedule: Q01DX009 (ip), vehicle: saline with Tween-80
[16] = dose: 50.0 mg/kg/injection, schedule: Q01DX009 (ip), vehicle: Klucel (hydroxypropylcellulose) (HPC)
[17] = dose: 400.0 mg/kg/injection, schedule: Q01DX001 (ip), vehicle: saline
[18] = dose: 100.0 mg/kg/injection, schedule: Q04DX002 (ip), vehicle: saline with Tween-80
[19] = dose: 200.0 mg/kg/injection, schedule: Q04DX002 (ip), vehicle: saline with Tween-80
[20] = dose: 400.0 mg/kg/injection, schedule: Q04DX002 (ip), vehicle: saline with Tween-80
[21] = dose: 100.0 mg/kg/injection, schedule: Q04DX002 (ip), vehicle: Klucel (hydroxypropylcellulose) (HPC)
[22] = dose: 200.0 mg/kg/injection, schedule: Q04DX002 (ip), vehicle: Klucel (hydroxypropylcellulose) (HPC)

Measured: T/C

Nc1n[nH]c(C(=O)O)n1
inactive: [1] 98 % of control | [2] 107 % of control | [3] 107 % of control | [4] 93 % of control | [5] 105 % of control | [6] 93 % of control

CCN(CC)CCCNc1cc(C)c(C)cc1[N+](=O)[O-]
inactive: dose: 100.0 mg/kg/injection, schedule: Q04DX003 (ip), vehicle: saline 100 % of control

CC1=C2[C@H]3OC(=O)[C@@H](C)[C@@H]3CC[C@@]2(C)C=C/C1=N\O
inactive: [7] 101 % of control | [8] 98 % of control

O=C(Cn1ccc(=O)[nH]c1=O)c1ccc(Cl)s1
inactive: [9] 100 % of control | [10] 96 % of control | [11] 97 % of control | [12] 98 % of control | [13] 91 % of control | [14] 104 % of control

C=C(C)CSC#N
inactive: dose: 25.0 mg/kg/injection, schedule: Q01DX009 (ip), vehicle: saline with Tween-80 101 % of control | [15] 96 % of control | [9] 101 % of control

CCCCCCC(O)CCCC (stereo unspecified)
inactive: [9] 117 % of control | [2] 91 % of control | [11] 110 % of control | [4] 88 % of control | [13] 122 % of control | [6] 88 % of control

CCCCC(=O)NC(=O)c1ccccc1
inactive: [9] 96 % of control | [10] 101 % of control | [11] 96 % of control | [12] 92 % of control | [13] 93 % of control | [14] 103 % of control

CCN(CCC#N)C(=S)Nc1cccc2ccccc12
inactive: [1] 102 % of control | [3] 101 % of control | [5] 104 % of control

CCc1ccccc1NC(=O)SCCSC(=O)Nc1ccccc1CC
inactive: dose: 25.0 mg/kg/injection, schedule: Q01DX009 (ip), vehicle: Klucel (hydroxypropylcellulose) (HPC) 91 % of control | [16] 102 % of control | [1] 96 % of control and 87 % of control | [5] 104 % of control

O=c1cc(O)ccn1CC(O)c1ccc(Cl)s1 (stereo unspecified)
inactive: [9] 89 % of control | [10] 100 % of control | [11] 88 % of control | [12] 98 % of control | [13] 94 % of control | [14] 99 % of control

CC1=C2CC(C)(C)/C=C\C(=O)/C(C)=C\C3=C[C@H](C)C[C@]3(O2)C1=O
inactive: dose: 11.0 mg/kg/injection, schedule: Q01DX009 (ip), vehicle: saline 112 % of control | dose: 16.0 mg/kg/injection, schedule: Q01DX009 (ip), vehicle: saline 106 % of control | dose: 24.0 mg/kg/injection, schedule: Q01DX009 (ip), vehicle: saline 116 % of control

C=Cn1cc[n+](Cc2ccccc2)c1C
inactive: dose: 10.0 mg/kg/injection, schedule: Q01DX009 (ip), vehicle: saline 101 % of control and 104 % of control | dose: 10.0 mg/kg/injection, schedule: Q04DX002 (ip), vehicle: saline 108 % of control and 90 % of control | dose: 20.0 mg/kg/injection, schedule: Q01DX009 (ip), vehicle: saline 105 % of control | dose: 20.0 mg/kg/injection, schedule: Q04DX002 (ip), vehicle: saline 94 % of control and 97 % of control | dose: 40.0 mg/kg/injection, schedule: Q01DX009 (ip), vehicle: saline 100 % of control and 116 % of control | dose: 40.0 mg/kg/injection, schedule: Q04DX002 (ip), vehicle: saline 97 % of control and 102 % of control

O=C1C=CC(=O)C(SCCCSC2=CC(=O)C(SCCCSC3=CC(=O)C=CC3=O)=CC2=O)=C1
inactive: [7] 92 % of control | [8] 92 % of control | [17] 101 % of control

CCC(C)OC(c1ccc2c(c1)OCO2)C(C)Br (stereo unspecified)
inactive: [18] 107 % of control | [19] 93 % of control | [20] 96 % of control

CCCCCCCCNC(C)C1=C(O)c2ccccc2C(=O)C1=O (stereo unspecified)
inactive: dose: 100.0 mg/kg/injection, schedule: Q01DX001 (ip), vehicle: saline with Tween-80 89 % of control | dose: 200.0 mg/kg/injection, schedule: Q01DX001 (ip), vehicle: saline with Tween-80 86 % of control | dose: 400.0 mg/kg/injection, schedule: Q01DX001 (ip), vehicle: saline with Tween-80 86 % of control

O=C(CCc1ccccc1)Nc1ccccc1
inactive: dose: 50.0 mg/kg/injection, schedule: Q01DX001 (ip), vehicle: saline 96 % of control | [7] 106 % of control | [2] 97 % of control | [8] 101 % of control | [4] 102 % of control | [17] 102 % of control | [6] 89 % of control

O=[N+]([O-])/C=C/C=C/c1ccco1
inactive: dose: 6.25 mg/kg/injection, schedule: Q04DX002 (ip), vehicle: saline with Tween-80 97 % of control | dose: 12.5 mg/kg/injection, schedule: Q04DX002 (ip), vehicle: saline with Tween-80 101 % of control | dose: 25.0 mg/kg/injection, schedule: Q04DX002 (ip), vehicle: saline with Tween-80 97 % of control and 90 % of control

CCOC(=O)C(=O)C1CCNC1=O (stereo unspecified)
inactive: dose: 12.5 mg/kg/injection, schedule: Q04DX003 (ip), vehicle: saline with Tween-80 92 % of control | dose: 25.0 mg/kg/injection, schedule: Q04DX003 (ip), vehicle: saline with Tween-80 95 % of control | dose: 50.0 mg/kg/injection, schedule: Q04DX003 (ip), vehicle: saline with Tween-80 97 % of control

NOC(=O)C(O)(c1ccccc1)C1CCCCC1 (stereo unspecified)
inactive: dose: 75.0 mg/kg/injection, schedule: Q01DX001 (ip), vehicle: other 104 % of control | dose: 150.0 mg/kg/injection, schedule: Q01DX001 (ip), vehicle: other 98 % of control | dose: 300.0 mg/kg/injection, schedule: Q01DX001 (ip), vehicle: other 98 % of control

CC1(C)C(C(=O)O)CC1C(=O)C(=O)O (stereo unspecified)
inactive: dose: 75.0 mg/kg/injection, schedule: Q01DX001 (ip), vehicle: carboxymethylcellulose (CMC) 96 % of control | dose: 150.0 mg/kg/injection, schedule: Q01DX001 (ip), vehicle: carboxymethylcellulose (CMC) 96 % of control | dose: 300.0 mg/kg/injection, schedule: Q01DX001 (ip), vehicle: carboxymethylcellulose (CMC) 94 % of control

CC(=O)Nc1c(C)cc(C)cc1C
inactive: [16] 105 % of control | [1] 106 % of control | [2] 96 % of control | [3] 103 % of control | [4] 102 % of control | [5] 103 % of control | [6] 104 % of control

Cc1ccc(Cl)cc1NC(=O)Nc1cccc(C(F)(F)F)c1
inactive: [15] 97 % of control and 90 % of control | [18] 102 % of control and 88 % of control | [10] 101 % of control | [19] 98 % of control and 90 % of control | [12] 96 % of control | [13] 105 % of control and 90 % of control | [20] 104 % of control and 91 % of control | [14] 91 % of control

CC(=O)NC(=S)Nc1ccccc1
inactive: dose: 12.5 mg/kg/injection, schedule: Q04DX003 (ip), vehicle: Klucel (hydroxypropylcellulose) (HPC) 95 % of control | dose: 25.0 mg/kg/injection, schedule: Q04DX003 (ip), vehicle: Klucel (hydroxypropylcellulose) (HPC) 117 % of control | dose: 50.0 mg/kg/injection, schedule: Q04DX003 (ip), vehicle: Klucel (hydroxypropylcellulose) (HPC) 101 % of control

CCOC(=O)CNC(=O)Nc1ccc(C(=O)OCC)cc1
inactive: [9] 98 % of control | [11] 92 % of control

O=C(O)c1cc(Cl)cc(F)c1Cl
inactive: [21] 101 % of control | [22] 105 % of control | dose: 400.0 mg/kg/injection, schedule: Q04DX002 (ip), vehicle: Klucel (hydroxypropylcellulose) (HPC) 105 % of control

O=Cc1c(Cl)n(C(=O)c2ccccc2)c2ccccc12
inactive: dose: 50.0 mg/kg/injection, schedule: Q04DX002 (ip), vehicle: Klucel (hydroxypropylcellulose) (HPC) 90 % of control | [21] 87 % of control | [22] 97 % of control
